Assay results published in ChEMBL document CHEMBL4049438, “Discovery and Optimization of Isoquinoline Ethyl Ureas as Antibacterial Agents” (J Med Chem, 2017).
In brackets after ≈: the same amount, converted by molar mass. Activity calls are given as the source filed them. The calls are words filed in the database; no cut-off is given here.

Experiments:
[1] = test system: Escherichia coli; experiment: Inhibition of Escherichia coli N-terminal His6-tagged DNA gyrase subunit GyrA/GyrB ATPase activity at 100 to 500 uM after 40 mins by spectrophotometric analysis
[2] = Inhibition of Escherichia coli N-terminal His6-tagged DNA gyrase subunit GyrA/GyrB ATPase activity expressed in Escherichia coli BL21 (DE3) after 40 mins by spectrophotometric analysis
[3] = Dissociation constant, pKa of the compound by pH metric assay; type: physicochemical
[4] = Octanol-phosphate buffer partition coefficient, logD of compound at pH 7.4 by LC/UV analysis; type: physicochemical
[5] = test system: Staphylococcus aureus; experiment: Antibacterial activity against Staphylococcus aureus ATCC 29213 by broth microdilution method; type: functional
[6] = molecular target: hERG (KCNH2) (Homo sapiens, UniProt Q12809); experiment: Inhibition of human ERG expressed in CHO cells at 10 uM after 3 mins at -80 mV holding potential by Qpatch assay; type: cell-based; settings: CHO cells expressing human ERG
Chain of hERG (KCNH2) (Q12809 whole entry): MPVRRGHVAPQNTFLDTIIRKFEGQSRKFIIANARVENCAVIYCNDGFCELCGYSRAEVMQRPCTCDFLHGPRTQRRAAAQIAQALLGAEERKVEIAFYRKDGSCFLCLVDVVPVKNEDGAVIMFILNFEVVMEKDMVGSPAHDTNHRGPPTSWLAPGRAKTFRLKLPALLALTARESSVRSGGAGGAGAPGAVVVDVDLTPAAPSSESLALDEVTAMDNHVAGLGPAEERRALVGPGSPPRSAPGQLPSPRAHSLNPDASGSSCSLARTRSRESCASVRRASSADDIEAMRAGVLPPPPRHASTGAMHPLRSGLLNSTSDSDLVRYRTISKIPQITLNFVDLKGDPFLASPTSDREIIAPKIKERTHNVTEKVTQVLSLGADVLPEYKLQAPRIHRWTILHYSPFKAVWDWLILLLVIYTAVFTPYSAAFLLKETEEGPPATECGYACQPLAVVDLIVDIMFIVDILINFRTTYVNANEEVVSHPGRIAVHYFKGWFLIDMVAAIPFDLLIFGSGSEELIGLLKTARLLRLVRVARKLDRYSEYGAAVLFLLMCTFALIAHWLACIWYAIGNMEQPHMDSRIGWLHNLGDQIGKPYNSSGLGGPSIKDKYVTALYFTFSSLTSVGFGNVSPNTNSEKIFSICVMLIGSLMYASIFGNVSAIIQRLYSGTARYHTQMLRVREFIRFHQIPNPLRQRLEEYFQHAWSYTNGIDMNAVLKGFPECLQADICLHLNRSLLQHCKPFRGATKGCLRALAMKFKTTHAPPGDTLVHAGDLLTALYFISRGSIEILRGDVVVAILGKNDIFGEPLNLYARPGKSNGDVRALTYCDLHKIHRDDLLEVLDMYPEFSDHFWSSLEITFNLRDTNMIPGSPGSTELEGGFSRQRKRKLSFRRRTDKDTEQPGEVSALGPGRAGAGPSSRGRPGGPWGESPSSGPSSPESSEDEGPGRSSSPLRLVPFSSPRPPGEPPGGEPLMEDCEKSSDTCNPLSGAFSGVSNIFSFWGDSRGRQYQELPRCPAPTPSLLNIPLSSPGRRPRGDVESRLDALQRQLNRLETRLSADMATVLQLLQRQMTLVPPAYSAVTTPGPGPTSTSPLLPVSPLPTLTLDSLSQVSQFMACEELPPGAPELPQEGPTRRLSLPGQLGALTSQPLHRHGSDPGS

[7] = Inhibition of Staphylococcus aureus topoisomerase 4 subunit ParC/ParE relaxation expressed in Escherichia coli BL21 (DE3) using supercoiled pBR322 DNA as substrate after 1 hr by agarose gel electrophoresis
[8] = molecular target: DNA gyrase (Staphylococcus aureus, UniProt P0A0K8+P20831)
Description: Inhibition of Staphylococcus aureus N-terminal His6-tagged DNA gyrase subunit GyrA/GyrB supercoiling activity expressed in Escherichia coli BL21 (DE3) using relaxed pBR322 DNA as substrate after 1 hr by agarose gel electrophoresis

[9] = Protein binding to mouse plasma by rapid equilibrium dialysis method; type: ADME, cell-free; settings: read-out: PPB (converted)
[10] = test system: Staphylococcus aureus; experiment: Antibacterial activity against methicillin-sensitive Staphylococcus aureus A-1178 by broth microdilution method; type: functional
[11] = test system: Staphylococcus aureus; experiment: Antibacterial activity against methicillin-sensitive Staphylococcus aureus A-1178 infected in neutropenic mouse assessed as change in bacterial burden in thighs at 30 mg/kg, po administered every 2.75 hrs for 2 times measured 6.5 hrs post infection; type: functional
[12] = AUC in mouse at 30 mg/kg, po after 24 hrs by LC-MS/MS analysis; type: ADME, organism-based; design: time < 24 hr, dose 30 mg/kg, route oral; settings: in vivo
[13] = test system: Mus musculus; experiment: Unbound AUC in mouse at 30 mg/kg, po after 24 hrs by LC-MS/MS analysis; type: ADME, organism-based; settings: in vivo
[14] = test system: Staphylococcus aureus; experiment: Antibacterial activity against methicillin/fluoroquinolone-resistant Staphylococcus aureus A-798 harboring topoisomerase gyrA S84L mutant/grlA S80F/Glu84V mutant by broth microdilution method; type: functional
[15] = test system: Moraxella catarrhalis; experiment: Antibacterial activity against Moraxella catarrhalis A-894 by broth microdilution method; type: functional
[16] = Inhibition of Escherichia coli DNA gyrase subunit GyrA/GyrB R136H mutant supercoiling activity expressed in Escherichia coli BL21 (DE3) using relaxed pBR322 DNA as substrate after 1 hr mins by agarose gel electrophoresis
[17] = molecular target: DNA topoisomerase 2-alpha (Homo sapiens, UniProt P11388); experiment: Inhibition of human DNA topoisomerase 2-alpha
Chain of DNA topoisomerase 2-alpha (P11388 whole entry): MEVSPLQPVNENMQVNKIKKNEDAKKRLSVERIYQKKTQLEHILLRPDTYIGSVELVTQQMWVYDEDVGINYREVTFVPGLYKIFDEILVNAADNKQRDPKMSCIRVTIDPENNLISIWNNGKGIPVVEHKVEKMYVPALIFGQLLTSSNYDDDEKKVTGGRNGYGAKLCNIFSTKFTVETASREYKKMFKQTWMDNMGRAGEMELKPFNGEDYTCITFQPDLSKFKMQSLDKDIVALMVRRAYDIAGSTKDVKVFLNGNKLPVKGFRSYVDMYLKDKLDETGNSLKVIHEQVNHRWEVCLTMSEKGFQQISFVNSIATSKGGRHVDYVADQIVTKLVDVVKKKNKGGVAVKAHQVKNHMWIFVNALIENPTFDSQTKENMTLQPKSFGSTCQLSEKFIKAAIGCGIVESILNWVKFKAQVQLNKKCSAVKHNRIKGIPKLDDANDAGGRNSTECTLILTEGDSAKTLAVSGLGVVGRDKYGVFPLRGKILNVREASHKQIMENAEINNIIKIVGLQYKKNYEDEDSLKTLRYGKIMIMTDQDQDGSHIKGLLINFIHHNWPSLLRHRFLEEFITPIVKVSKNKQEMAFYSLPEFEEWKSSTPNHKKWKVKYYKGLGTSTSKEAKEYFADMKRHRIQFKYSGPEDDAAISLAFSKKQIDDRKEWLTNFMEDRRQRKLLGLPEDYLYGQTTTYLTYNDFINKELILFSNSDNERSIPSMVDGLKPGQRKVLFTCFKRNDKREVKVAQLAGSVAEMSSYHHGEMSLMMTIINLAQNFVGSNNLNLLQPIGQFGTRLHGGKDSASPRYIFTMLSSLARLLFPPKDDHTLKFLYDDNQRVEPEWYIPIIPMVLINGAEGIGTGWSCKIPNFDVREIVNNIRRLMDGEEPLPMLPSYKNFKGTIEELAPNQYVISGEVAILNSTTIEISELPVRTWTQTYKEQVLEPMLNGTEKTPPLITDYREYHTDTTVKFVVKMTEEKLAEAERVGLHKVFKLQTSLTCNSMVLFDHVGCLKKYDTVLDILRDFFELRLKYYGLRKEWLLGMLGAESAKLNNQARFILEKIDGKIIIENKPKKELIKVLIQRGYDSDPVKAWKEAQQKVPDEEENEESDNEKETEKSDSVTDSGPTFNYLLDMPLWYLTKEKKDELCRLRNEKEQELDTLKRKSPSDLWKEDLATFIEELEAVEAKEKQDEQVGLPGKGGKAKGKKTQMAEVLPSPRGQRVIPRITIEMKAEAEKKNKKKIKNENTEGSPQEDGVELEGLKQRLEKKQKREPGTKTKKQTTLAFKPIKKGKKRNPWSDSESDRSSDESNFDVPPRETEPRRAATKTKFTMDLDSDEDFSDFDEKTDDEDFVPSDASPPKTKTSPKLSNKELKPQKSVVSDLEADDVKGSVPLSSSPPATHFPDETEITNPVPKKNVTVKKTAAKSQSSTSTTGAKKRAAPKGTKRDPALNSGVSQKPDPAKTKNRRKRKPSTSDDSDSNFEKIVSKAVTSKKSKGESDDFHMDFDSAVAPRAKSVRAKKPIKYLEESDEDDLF

[18] = test system: Streptococcus pneumoniae; experiment: Antibacterial activity against Streptococcus pneumoniae ATCC 49619 by broth microdilution method; type: functional
[19] = test system: Enterococcus faecalis; experiment: Antibacterial activity against Enterococcus faecalis ATCC 29212 by broth microdilution method; type: functional
[20] = test system: Enterococcus faecium; experiment: Antibacterial activity against vancomycin/fluoroquinolone-resistant Enterococcus faecium A-949 harboring topoisomerase gyrA E88K mutant/parC S80R mutant by broth microdilution method; type: functional
[21] = test system: Escherichia coli; experiment: Antibacterial activity against TolC deficient Escherichia coli by broth microdilution method; type: functional
[22] = test system: Streptococcus pneumoniae; experiment: Antibacterial activity against fluoroquinolone-resistant Streptococcus pneumoniae A-70 harboring topoisomerase gyrA S81F mutant/parc S79F mutant/parE I440V mutant by broth microdilution method; type: functional
[23] = Inhibition of Escherichia coli N-terminal His6-tagged DNA gyrase subunit GyrA/GyrB supercoiling activity expressed in Escherichia coli BL21 (DE3) using relaxed pBR322 DNA as substrate after 1 hr by agarose gel electrophoresis
[24] = test system: Haemophilus influenzae; experiment: Antibacterial activity against Haemophilus influenzae A-921 by broth microdilution method; type: functional
[25] = test system: Streptococcus pyogenes; experiment: Antibacterial activity against Streptococcus pyogenes ATCC 19615 by broth microdilution method; type: functional
[26] = Inhibition of Haemophilus influenzae DNA gyrase subunit GyrA/GyrB supercoiling activity expressed in Escherichia coli BL21 (DE3) using relaxed pBR322 DNA as substrate after 1 hr mins by agarose gel electrophoresis
[27] = test system: Escherichia coli; experiment: Antibacterial activity against Escherichia coli ATCC 25922 by broth microdilution method; type: functional
[28] = Inhibition of fluoroquinolone-resistant Staphylococcus aureus clinical isolate DNA gyrase subunit GyrB/GyrA S84L mutant supercoiling activity using relaxed pBR322 DNA as substrate after 1 hr by agarose gel electrophoresis
[29] = Inhibition of Streptococcus pneumoniae DNA topoisomerase 4 subunit ParC/ParE relaxation expressed in Escherichia coli BL21 (DE3) using supercoiled pBR322 DNA as substrate after 1 hr mins by agarose gel electrophoresis
[30] = Inhibition of Streptococcus pneumoniae DNA gyrase subunit GyrA/GyrB supercoiling activity expressed in Escherichia coli BL21 (DE3) using relaxed pBR322 DNA as substrate after 1 hr mins by agarose gel electrophoresis
[31] = Inhibition of Haemophilus influenzae DNA topoisomerase 4 subunit ParC/ParE relaxation expressed in Escherichia coli BL21 (DE3) using supercoiled pBR322 DNA as substrate after 1 hr mins by agarose gel electrophoresis
[32] = Inhibition of Escherichia coli DNA topoisomerase 4 subunit ParC/ParE relaxation expressed in Escherichia coli BL21 (DE3) using supercoiled pBR322 DNA as substrate after 1 hr by agarose gel electrophoresis

inhibition [1]	IC50 [2] [nM]	pKa [3]	logD [4]	MIC [5] [µg/mL]	IC50 [7] [nM]	IC50 [8] [nM]	SMILES	inhibition at 0.05 h, 10 µM [6] [%]	further results
Active	20000	–	–	–	–	–	CCNC(=O)Nc1nc2ccncc2s1	–	–
Active	200000	–	–	–	–	–	CCNC(=O)Nc1nc2c(s1)CCCC2	–	–
Active	> 200000	–	–	–	–	–	CCNC(=O)Nc1nccc2ccccc12	–	–
Active	> 200000	–	–	–	–	–	CCNC(=O)Nc1ncc2ccccc2n1	–	–
Active	20000	–	–	–	–	–	CCNC(=O)Nc1nc2ccccc2s1	–	–
Active	> 200000	–	–	–	–	–	CCNC(=O)Nc1nccs1	–	–

Continued, molecule first:

SMILES	inhibition [1]	IC50 [2] [nM]	pKa [3]	logD [4]	MIC [5] [µg/mL]	IC50 [7] [nM]	IC50 [8] [nM]	inhibition at 0.05 h, 10 µM [6] [%]	further results
CCNC(=O)Nc1ccc2ccccc2n1	Active	70000	–	–	–	–	–	–	–
CCNC(=O)Nc1cc2c(-c3ccncc3)ccc(CNC(=O)OCCNCC(C)(C)C)c2cn1	–	–	8.7	2.6	4 (≈ 8.36 µM)	8000	8	25	–
CCNC(=O)Nc1cc2c(-c3ccnc(C)c3)ccc(COC(=O)NC3CCNCC3)c2cn1	–	–	9.8	0.8	16 (≈ 34.6 µM)	500	8	2	–
CCNC(=O)Nc1cc2c(-c3ccnc(C)c3)ccc(COC(=O)N[C@@H]3CCNC[C@@H]3F)c2cn1 (relative stereo)	–	–	8.1	1.5	4 (≈ 8.32 µM)	125	8	8	–
CCNC(=O)Nc1cc2c(-c3ccnc(C)c3)ccc(CNC(C)=O)c2cn1	–	–	–	2.6	0.5 (≈ 1.32 µM)	2000	8	4	fraction unbound [9]: 0.123; MIC [10]: 0.5 µg/mL (≈ 1.32 µM); Activity [11]: 0 deltalog10CFU; AUC at 24 h [12]: 120 ng·h/mL; fAUC [13]: 15 ng·h/mL
CCNC(=O)Nc1cc2c(-c3ccncc3)ccc(C)c2cn1	–	< 200	–	–	0.5 (≈ 1.63 µM)	8000	30	–	MIC [14]: 0.5 µg/mL (≈ 1.63 µM); MIC [15]: 0.5 µg/mL (≈ 1.63 µM); IC50 [16]: 125 nM; IC50 [17]: > 256000 nM; Activity [11]: -1.3 deltalog10CFU; MIC [18]: 1 µg/mL (≈ 3.26 µM); MIC [19]: 0.25 µg/mL (≈ 0.816 µM); MIC [20]: 1 µg/mL (≈ 3.26 µM); MIC [21]: 2 µg/mL (≈ 6.53 µM); MIC [22]: 1 µg/mL (≈ 3.26 µM); IC50 [23]: 125 nM; MIC [24]: 4 µg/mL (≈ 13.1 µM); MIC [25]: 4 µg/mL (≈ 13.1 µM); IC50 [26]: 125 nM; MIC [27]: > 16 µg/mL; IC50 [28]: 30 nM; IC50 [29]: 500 nM; IC50 [30]: 2000 nM; IC50 [31]: 8000 nM; IC50 [32]: 8000 nM
CCNC(=O)Nc1cc2c(-c3ccncc3)ccc(CNC(=O)OCCN3CCOCC3)c2cn1.Cl	–	–	6.3	2.3	4	500	< 4	0	–
CCNC(=O)Nc1cc2c(-c3ccnc(C)c3)ccc(COC(=O)N3CCN(CC4CC4)CC3)c2cn1.Cl	–	–	7.4	3.6	1	500	8	74	–
